Experiment in all cases: in vitro cell proliferation inhibition (CCK-8)
Holding throughout (assay type): cell-based

The test system of assay [1] is breast cancer cell line MDA-MB-231. The settings on record: Homo sapiens, 48 h incubation, read-out: IC50.
Excerpt: (§1) Osteosarcoma cell line 143B, HOS, and U2, liver cancer cell line HepG2, breast cancer cell line MDA-MB-231 and T47D, gastric cancer cell line AGS, BGC-823, and SGC-7901, cervical cancer cells Hela, lung cancer cells A549, intestinal cancer cells Caco2, mouse glioma cells BV-2, human prostate cancer cells PC3, human thyroid cancer cell line BCPAP, human normal liver cell line L02, human normal gastric cell line GES, human umbilical vein epithelial cells HUVEC, and human embryonic lung fibroblasts WI-38 were cultured in a DMEM medium containing 10% fetal bovine serum and 1×HEPES in a humid incubator (37° C., 5% CO2). The cells were passaged with trypsin-EDTA in logarithmic phase. Certain density of cells (AGS, T47D, Caco2, BCPAP, GES, HUVEC 1×10^5 cells per well; HepG2, MDA-MB-231, BGC-823, A549, PC3, L02 8×10^4 cells per well; 143B, HOS, U2, SGC-7901, Hela, BV-2, 5×10^4 cells per well; WI-38, 3×10^5 cells per well) were inoculated in a 96-well plate, and cultured for 24 h before treatment. After replacing a fresh medium, 12.5 mg/L to 400 mg/L of quercetin, quercetin 3-methyl ether, and quercetin 3,3′-dimethyl ether dissolved with DMSO were added into the medium (a final volume ratio was 0.1%, and the DMSO was used as a […]). After incubation for 48 h, a complete medium was replaced with a serum-free medium containing 10% CCK-8 reagent. The absorbance at 450 nm and 620 nm was measured separately after the cells were incubated for 1 h. Each experiment was repeated three times independently.
as §1, with “400 mg/L,” for “400 mg/L”, “of” for “of quercetin, quercetin 3-methyl ether, and”, “DMSO was” for “DMSO were”, “into a” for “into the”

Assay [2] deals with breast cancer cell line T47D. The conditions noted are these: Homo sapiens, 48 h incubation, read-out: IC50.
Excerpt: as §1
as §1, with “400 mg/L,” for “400 mg/L”, “of” for “of quercetin, quercetin 3-methyl ether, and”, “DMSO was” for “DMSO were”, “into a” for “into the”

The test system of assay [3] is Osteosarcoma cell line U2. The settings on record: 48 h incubation, read-out: IC50.
Excerpt: as §1
as §1, with “400 mg/L,” for “400 mg/L”, “of” for “of quercetin, quercetin 3-methyl ether, and”, “DMSO was” for “DMSO were”, “into a” for “into the”

The test system of assay [4] is human thyroid cancer cell line BCPAP. The settings on record: Homo sapiens, 48 h incubation, read-out: IC50.
Excerpt: as §1
as §1, with “400 mg/L,” for “400 mg/L”, “of” for “of quercetin, quercetin 3-methyl ether, and”, “DMSO was” for “DMSO were”, “into a” for “into the”

In another assay the test system is mouse glioma cells BV-2. The conditions noted are these: Mus musculus, Glioma cell, BV2, 48 h incubation, read-out: IC50.
Excerpt: as §1
as §1, with “400 mg/L,” for “400 mg/L”, “of” for “of quercetin, quercetin 3-methyl ether, and”, “DMSO was” for “DMSO were”, “into a” for “into the”

Assay [5] deals with gastric cancer cell line AGS. The conditions noted are these: 48 h incubation, read-out: IC50.
Excerpt: as §1
as §1, with “400 mg/L,” for “400 mg/L”, “of” for “of quercetin, quercetin 3-methyl ether, and”, “DMSO was” for “DMSO were”, “into a” for “into the”

Assay [6] relates to intestinal cancer cells Caco2. The conditions noted are these: Homo sapiens, Caco-2, 48 h incubation, read-out: IC50.
Excerpt: as §1
as §1, with “400 mg/L,” for “400 mg/L”, “of” for “of quercetin, quercetin 3-methyl ether, and”, “DMSO was” for “DMSO were”, “into a” for “into the”

In assay [7] the test system is human prostate cancer cells PC3. The settings on record: Homo sapiens, 48 h incubation, read-out: IC50.
Excerpt: as §1
as §1, with “400 mg/L,” for “400 mg/L”, “of” for “of quercetin, quercetin 3-methyl ether, and”, “DMSO was” for “DMSO were”, “into a” for “into the”

The subject of the next assay is lung cancer cells A549. The settings on record: Homo sapiens, 48 h incubation, read-out: IC50.
Excerpt: as §1
as §1, with “400 mg/L,” for “400 mg/L”, “of” for “of quercetin, quercetin 3-methyl ether, and”, “DMSO was” for “DMSO were”, “into a” for “into the”

The subject of assay [8] is Osteosarcoma cell line HOS. The conditions noted are these: 48 h incubation, read-out: IC50.
Excerpt: as §1
as §1, with “400 mg/L,” for “400 mg/L”, “of” for “of quercetin, quercetin 3-methyl ether, and”, “DMSO was” for “DMSO were”, “into a” for “into the”

Assay [9] has as its system Osteosarcoma cell line 143B. The conditions noted are these: Homo sapiens, 48 h incubation, read-out: IC50.
Excerpt: as §1
as §1, with “400 mg/L,” for “400 mg/L”, “of” for “of quercetin, quercetin 3-methyl ether, and”, “DMSO was” for “DMSO were”, “into a” for “into the”

Assay [10] has as its system liver cancer cell line HepG2. The settings on record: Homo sapiens, 48 h incubation, read-out: IC50.
Excerpt: as §1
as §1, with “400 mg/L,” for “400 mg/L”, “of” for “of quercetin, quercetin 3-methyl ether, and”, “DMSO was” for “DMSO were”, “into a” for “into the”

For assay [11], the system named is gastric cancer cell line BGC-823. The settings on record: Homo sapiens, BGC-823, BGC823, 48 h incubation, read-out: IC50.
Excerpt: as §1
as §1, with “400 mg/L,” for “400 mg/L”, “of” for “of quercetin, quercetin 3-methyl ether, and”, “DMSO was” for “DMSO were”, “into a” for “into the”

Assay [12] deals with cervical cancer cells Hela. The settings on record: Homo sapiens, 48 h incubation, read-out: IC50.
Excerpt: as §1
as §1, with “400 mg/L,” for “400 mg/L”, “of” for “of quercetin, quercetin 3-methyl ether, and”, “DMSO was” for “DMSO were”, “into a” for “into the”

Assay [13] concerns gastric cancer cell line SGC-7901. The conditions noted are these: Homo sapiens, SGC-7901, SGC7901, 48 h incubation, read-out: IC50.
Excerpt: as §1
as §1, with “400 mg/L,” for “400 mg/L”, “of” for “of quercetin, quercetin 3-methyl ether, and”, “DMSO was” for “DMSO were”, “into a” for “into the”

Consider one molecule from patent US20240173289A1, “USE OF OXYMETHYL-MODIFIED DERIVATIVE OF QUERCETIN IN PREPARATION OF DRUG FOR INHIBITING TUMOR CELL PROLIFERATION” (ZHEJIANG UNIVERSITY, priority 2021, published 2024).

Each structure is given as a SMILES string. In brackets after ≈: the same amount, converted by molar mass.

As to `COc1cc(-c2oc3cc(O)cc(O)c3c(=O)c2OC)ccc1O` [Quercetin 3,3′-dimethyl ether, quercetin 3,3′-dimethyl ether], the half-maximal inhibitory concentration (IC50) (in general, the concentration that gives 50% inhibition) in [1] came to 11.4 µg/mL (≈ 34.5 µM); in assay [2], 13.3 µg/mL (≈ 40.4 µM); in [3] it was 49.5 µg/mL (≈ 150 µM); in assay [4] it was 12.3 µg/mL (≈ 37.2 µM); with mouse glioma cells BV-2 it was 21.1 µg/mL (≈ 63.9 µM); in assay [5], 15.8 µg/mL (≈ 47.9 µM). Also, the IC50 stood at 21.4 µg/mL (≈ 64.8 µM) in [6]; 31.3 µg/mL (≈ 94.7 µM) in assay [7]; 17.4 µg/mL (≈ 52.6 µM) in the assay with lung cancer cells A549; 18.6 µg/mL (≈ 56.3 µM) in [8]; 21.6 µg/mL (≈ 65.5 µM) in [9]; 5.85 µg/mL (≈ 17.7 µM) in assay [10]. Also, the values for the IC50 in assay [11], in [12] and in assay [13] were 26.1 µg/mL (≈ 78.9 µM), 11.1 µg/mL (≈ 33.7 µM) and 28.4 µg/mL (≈ 85.9 µM), respectively.
